US4609640A, “Preparation having excellent absorption property” (priority 1981, dated 1986)

Conditions: rat, in vivo
Procedure: Subsequently, these samples were administered to Wistar-strain rats as shown below and quantities of Cephalothin disappeared by absorption were measured.
In the experiment, Wistar-strain male rats, weighing 250 to 300 g, were narcotized with pentobarbital (50 mg/kg) and thereafter subjected to hypoabdominal incision for a first cannulation at a position about 1.5 cm from the anus and also another cannulation at a position 5 cm above the first cannulation. Subsequently, the rectum was internally washed with about 20 ml of isotonic sodium chloride solution kept at 38° C., and each sample was circulated at a flow rate of 2 ml/minute for 5 minutes to make the concentration in the system constant. Then, 6 ml of each sample was circulated at a flow rate of 2 ml/minute, and samples each of 0.05 ml were collected at intervals of 10 minutes. Each sample was diluted and the quantity of Cephalothin disappeared was determined by UV-spectrophotometer or high-speed liquid chromatography.

pectinic acid
absorption of Cephalothin: improves remarkably absorption of Cephalothin
absorption of Cephalothin under hyper tonic conditions: further improvement
